Laboratory results as given in patent publication US20120029177A1, “HETEROCYCLE-AMINO ACID DERIVATIVES FOR TARGETING CANCER TISSUE AND RADIOACTIVE OR NON-RADIOACTIVE LABELED COMPOUNDS THEREOF” (SNU R&DB FOUNDATION, priority 2009, published 2012).

Columns and labels:
[1] = system: SNU-C4 xenografted nude mice; assay: PET imaging of tumor xenografted mice; assay type: in vivo, mouse; conditions: PET at 1 and 2 hr post-injection, FIG. 2
Procedure: Human colon cancer cell line SNU-C4 was cultured in RPMI1640 media containing 10% fetal bovine serum and harvested using trypsin. The cells were washed using 10 mL PBS and centrifugation at 3,000 rpm. Each nude mouse was injected with 2×10^5 cells/0.1 mL on the right shoulder subcutaneously. On 14 days post-injection, each 10 μCi/0.1 mL of ^68Ga labeled agent was injected into the xenografted mice through the tail vein. The injected mice were anesthetized using 2% isoflurane, PET images were obtained at 1 and 2 hr post-injection using rodent R4, microPET scanner (Concorde Microsystem Inc.). The images were analyzed using ASIPro software (Concorde Microsystem Inc.).

[2] = system: SNU-C4 xenografted nude mice; assay: Biodistribution study in SNU-C4 xenografted nude mice after intravenous injection; assay type: in vivo, mouse; conditions: for % ID/g Tumor: SNU-C4 tumor; for tumor uptake compared with the control heterocyclic compound (in words): SNU-C4 xenografted nude mice, 10 min to 2 hr
Procedure: Human colon cancer cell line SNU-C4 was cultured in RPMI1640 media containing 10% fetal bovine serum and harvested using trypsin. The cells were washed using 10 mL PBS and centrifugation at 3,000 rpm. Each nude mouse was injected with 2×10^5 cells/0.1 mL on the right shoulder subcutaneously. On 13 days post-injection, each 10 μCi/0.1 mL of ^68Ga labeled agent was injected into the xenografted mice through the tail vein. The injected mice were sacrificed at 10 min, 30 min, 1 hr, and 2 hr, cancer, blood, muscle, heart, liver, spleen, stomach, intestine, and bone were obtained, weighed, and their radioactivities were counted. The results were expressed as percentages of injected dose per gram tissue (% ID/g).

CT-26 cells = assay: In vitro cell uptake, CT-26 (FIG. 1b); assay type: cell-based, mouse; conditions: controls ^68Ga-DO2A, ^68Ga-DO3A
Procedure: (§1) Human colon cancer cell line SNU-C4 was purchased from Korea Cell Line Bank (KCLB). Human thyroid cell line ARO, human liver cancer cell line Hep3B, human glioma cell line U251MG and U87MG, and mouse colon cell line CT-26 were purchased from American Type Culture Collection (ATCC). SNU-C4 and ARO were culture in RPMI1640 (Welgene Inc., Korea) and Hep3B, U251 MG, U87MG, and CT-26 were cultured in DMEM (Welgene Inc., Korea). Penicillin, streptomycin and amphotericin B (10,000 IU/mL, 10 mg/mL and 25 μg/mL, respectively, Mediatech Inc., U.S.A.) 1% mixture and fetal bovine serum (Welgene Inc., Korea) were added to all cell culture media. Cell culture was done in 37° C. incubator with supply of 5% CO2.
(§2) About 1.8×10^5 cells/mL CT-26 and 1.2×10^5 cells/mL U87MG were put into 24-well incubation plate and incubated for 20 hr. When the each well was about 80% confluent with cells, 296 kBq/0.5 mL of ^68Ga labeled agent was added to each well. Culture supernatants were discarded at each time point and cells were washed with ice-cooled Hank's balanced salt solution (HBSS, pH7.3, Gibco, U.S.A.) 2 times. The cells were dissolved by 0.5% sodium dodecylsulfate (SDS), recovered and counted using a gamma counter (Packard, Can berra Co., U.S.A.). Total protein amount in each sample was measured by bicinchonic acid (BCA, Pierce, U.S.A.) method.

U87MG cells = assay: In vitro cell uptake, U87MG (FIG. 1a); assay type: cell-based, human; conditions: controls ^68Ga-DOTA, ^68Ga-NOTA
Procedure: as §1, §2

[3] = 10 min after intravenous injection
[4] = 30 min after intravenous injection
[5] = 1 hr after intravenous injection
[6] = 2 hr after intravenous injection

With `N[C@@H](CN1CCN(CC(=O)[O-])CCN(CC(=O)[O-])CCN(CC(=O)[O-])CC1)C(=O)O.[68Ga+3]` (stereo in doubt) [^68Ga-DO3A-ala] the “tumor uptake in PET images” value [1] was “high tumor uptakes”, the “% ID/g Tumor” value [2, 3] was 3.22 ± 0.90 % ID/g and the “% ID/g Tumor” value [2, 4] was 2.49 ± 0.40 % ID/g. For the same compound, the “% ID/g Tumor” value [2, 5] was 2.44 ± 0.46 % ID/g, the “% ID/g Tumor” value [2, 6] was 2.98 ± 0.58 % ID/g and the “tumor uptake compared with the control heterocyclic compound (in words)” value [2] was “higher and increasing by time”. For the same compound, the “% ID/g Blood” value [2, 3] was 11.12 ± 0.49 % ID/g, the “% ID/g Blood” value [2, 4] was 8.35 ± 0.29 % ID/g and the “% ID/g Blood” value [2, 5] was 7.97 ± 1.29 % ID/g. The “% ID/g Blood” value [2, 6] was 6.07 ± 1.13 % ID/g, the “% ID/g Bone” value [2, 3] was 4.06 ± 0.44 % ID/g and the “% ID/g Bone” value [2, 4] was 3.63 ± 0.49 % ID/g. The “% ID/g Bone” value [2, 5] was 4.73 ± 0.69 % ID/g, the “% ID/g Bone” value [2, 6] was 5.00 ± 2.41 % ID/g and the “% ID/g Heart” value [2, 3] was 2.70 ± 0.18 % ID/g. The “% ID/g Heart” value [2, 4] was 1.80 ± 0.22 % ID/g, the “% ID/g Heart” value [2, 5] was 1.69 ± 0.40 % ID/g and the “% ID/g Heart” value [2, 6] was 1.30 ± 0.40 % ID/g. For the same compound, the “% ID/g Intestine” value [2, 3] was 2.48 ± 0.13 % ID/g, the “% ID/g Intestine” value [2, 4] was 1.74 ± 0.14 % ID/g and the “% ID/g Intestine” value [2, 5] was 1.87 ± 0.33 % ID/g. For the same compound, the “% ID/g Intestine” value [2, 6] was 4.38 ± 1.14 % ID/g, the “% ID/g Kidney” value [2, 3] was 60.06 ± 14.07 % ID/g and the “% ID/g Kidney” value [2, 4] was 9.10 ± 2.19 % ID/g. The “% ID/g Kidney” value [2, 5] was 4.82 ± 0.99 % ID/g, the “% ID/g Kidney” value [2, 6] was 6.06 ± 2.27 % ID/g and the “% ID/g Liver” value [2, 3] was 2.58 ± 0.07 % ID/g. For the same compound, the “% ID/g Liver” value [2, 4] was 2.30 ± 0.13 % ID/g, the “% ID/g Liver” value [2, 5] was 2.35 ± 0.25 % ID/g and the “% ID/g Liver” value [2, 6] was 2.52 ± 0.41 % ID/g. The “% ID/g Lung” value [2, 3] was 13.60 ± 2.37 % ID/g, the “% ID/g Lung” value [2, 4] was 9.35 ± 1.00 % ID/g and the “% ID/g Lung” value [2, 5] was 8.40 ± 1.17 % ID/g. For the same compound, the “% ID/g Lung” value [2, 6] was 8.04 ± 0.83 % ID/g, the “% ID/g Muscle” value [2, 3] was 3.52 ± 0.42 % ID/g and the “% ID/g Muscle” value [2, 4] was 2.03 ± 0.41 % ID/g. For the same compound, the “% ID/g Muscle” value [2, 5] was 1.38 ± 0.39 % ID/g, the “% ID/g Muscle” value [2, 6] was 1.33 ± 0.48 % ID/g and the “% ID/g Spleen” value [2, 3] was 2.59 ± 0.30 % ID/g. The “% ID/g Spleen” value [2, 4] was 2.33 ± 0.15 % ID/g, the “% ID/g Spleen” value [2, 5] was 2.33 ± 0.44 % ID/g and the “% ID/g Spleen” value [2, 6] was 2.19 ± 0.35 % ID/g. For the same compound, the “% ID/g Stomach” value [2, 3] was 1.97 ± 0.18 % ID/g, the “% ID/g Stomach” value [2, 4] was 1.53 ± 0.17 % ID/g and the “% ID/g Stomach” value [2, 5] was 1.53 ± 0.37 % ID/g. For the same compound, the “% ID/g Stomach” value [2, 6] was 11.42 ± 5.04 % ID/g and the “tumor cell uptake versus control agents” value (CT-26 cells) was “significantly increase tumor cell uptakes”.
With `NC(CNC(=O)CN1CCN(CC(=O)[O-])CCN(CC(=O)[O-])CCN(CC(=O)[O-])CC1)C(=O)O.[68Ga+3]` (stereo not drawn) [^68Ga-DOTA-ala] the “tumor uptake in PET images” value [1] was “high tumor uptakes”, the “% ID/g Tumor” value [2, 3] was 3.33 ± 0.58 % ID/g and the “% ID/g Tumor” value [2, 4] was 2.23 ± 0.64 % ID/g. For the same compound, the “% ID/g Tumor” value [2, 5] was 0.93 ± 0.22 % ID/g, the “% ID/g Tumor” value [2, 6] was 0.66 ± 0.25 % ID/g and the “tumor uptake compared with the control heterocyclic compound (in words)” value [2] was “higher than that of ^68Ga-DOTA at all time point”. The “% ID/g Blood” value [2, 3] was 7.87 ± 1.11 % ID/g, the “% ID/g Blood” value [2, 4] was 2.63 ± 0.11 % ID/g and the “% ID/g Blood” value [2, 5] was 1.30 ± 0.28 % ID/g. For the same compound, the “% ID/g Blood” value [2, 6] was 0.65 ± 0.11 % ID/g, the “% ID/g Bone” value [2, 3] was 2.52 ± 0.64 % ID/g and the “% ID/g Bone” value [2, 4] was 1.20 ± 0.17 % ID/g. The “% ID/g Bone” value [2, 5] was 0.90 ± 0.12 % ID/g, the “% ID/g Bone” value [2, 6] was 0.70 ± 0.26 % ID/g and the “% ID/g Heart” value [2, 3] was 2.19 ± 0.47 % ID/g. The “% ID/g Heart” value [2, 4] was 0.78 ± 0.07 % ID/g, the “% ID/g Heart” value [2, 5] was 0.43 ± 0.10 % ID/g and the “% ID/g Heart” value [2, 6] was 0.15 ± 0.05 % ID/g. The “% ID/g Intestine” value [2, 3] was 1.91 ± 0.48 % ID/g, the “% ID/g Intestine” value [2, 4] was 0.74 ± 0.11 % ID/g and the “% ID/g Intestine” value [2, 5] was 0.52 ± 0.10 % ID/g. For the same compound, the “% ID/g Intestine” value [2, 6] was 0.40 ± 0.10 % ID/g, the “% ID/g Kidney” value [2, 3] was 50.94 ± 18.62 % ID/g and the “% ID/g Kidney” value [2, 4] was 44.79 ± 11.99 % ID/g. The “% ID/g Kidney” value [2, 5] was 67.43 ± 16.10 % ID/g, the “% ID/g Kidney” value [2, 6] was 48.79 ± 20.36 % ID/g and the “% ID/g Liver” value [2, 3] was 1.57 ± 0.22 % ID/g. The “% ID/g Liver” value [2, 4] was 0.80 ± 0.12 % ID/g, the “% ID/g Liver” value [2, 5] was 0.56 ± 0.06 % ID/g and the “% ID/g Liver” value [2, 6] was 0.39 ± 0.10 % ID/g. For the same compound, the “% ID/g Muscle” value [2, 3] was 2.12 ± 0.64 % ID/g, the “% ID/g Muscle” value [2, 4] was 0.90 ± 0.11 % ID/g and the “% ID/g Muscle” value [2, 5] was 0.47 ± 0.16 % ID/g. The “% ID/g Muscle” value [2, 6] was 0.14 ± 0.03 % ID/g, the “% ID/g Spleen” value [2, 3] was 1.64 ± 0.26 % ID/g and the “% ID/g Spleen” value [2, 4] was 0.74 ± 0.10 % ID/g. The “% ID/g Spleen” value [2, 5] was 0.47 ± 0.04 % ID/g, the “% ID/g Spleen” value [2, 6] was 0.33 ± 0.08 % ID/g and the “% ID/g Stomach” value [2, 3] was 2.63 ± 0.63 % ID/g. For the same compound, the “% ID/g Stomach” value [2, 4] was 0.90 ± 0.17 % ID/g, the “% ID/g Stomach” value [2, 5] was 0.45 ± 0.10 % ID/g and the “% ID/g Stomach” value [2, 6] was 0.21 ± 0.05 % ID/g. For the same compound, the “tumor cell uptake versus control agents” value (U87MG cells) was “significantly increase tumor cell uptakes”.
